Results as given in the NIST ThermoML archive (doi:10.1016/j.jct.2011.09.028).
± gives the expanded uncertainty stated by the source.

Tests used:
[1] = activity coefficient (dimensionless); of the first substance listed, at infinite dilution; xn = mol fraction of the nth substance listed; conditions: 101 kPa, Liquid, Chromatography, x1 = 0
[2] = 101.33 kPa, Liquid, Vibrating tube method

Row | SMILES | activity coefficient ([1]; 318.15 K) | activity coefficient ([1]; 323.15 K) | activity coefficient ([1]; 333.15 K) | activity coefficient ([1]; 343.15 K) | activity coefficient ([1]; 353.15 K) | mass density ([2]; 288.15 K) | mass density ([2]; 293.15 K) | mass density ([2]; 298.15 K) | mass density ([2]; 303.15 K) | mass density ([2]; 308.15 K) | mass density ([2]; 313.15 K) | mass density ([2]; 318.15 K)
1 | FC(F)(F)C(Cl)Br (configuration not stated) [1-bromo-1-chloro-2,2,2-trifluoroethane] + CCn1cc[n+](C)c1.N#C[B-](C#N)(C#N)C#N | 1.16 ± 0.05 | 1.19 ± 0.05 | 1.28 ± 0.06 | 1.34 ± 0.06 | 1.41 ± 0.07 |  |  |  |  |  |  | 
2 | Cc1cccc(C)c1 [1,3-dimethylbenzene] + CCn1cc[n+](C)c1.N#C[B-](C#N)(C#N)C#N | 2.62 ± 0.13 | 2.62 ± 0.13 | 2.63 ± 0.13 | 2.63 ± 0.13 | 2.64 ± 0.14 |  |  |  |  |  |  | 
3 | CC(C)=O [acetone] + CCn1cc[n+](C)c1.N#C[B-](C#N)(C#N)C#N | 0.437 ± 0.029 | 0.443 ± 0.03 | 0.454 ± 0.03 | 0.466 ± 0.03 | 0.479 ± 0.03 |  |  |  |  |  |  | 
4 | CC#N [acetonitrile] + CCn1cc[n+](C)c1.N#C[B-](C#N)(C#N)C#N | 0.428 ± 0.029 | 0.43 ± 0.029 | 0.43 ± 0.029 | 0.431 ± 0.029 | 0.432 ± 0.029 |  |  |  |  |  |  | 
5 | ClCCl [dichloromethane] + CCn1cc[n+](C)c1.N#C[B-](C#N)(C#N)C#N | 0.656 ± 0.034 | 0.665 ± 0.034 | 0.682 ± 0.034 | 0.698 ± 0.035 | 0.714 ± 0.035 |  |  |  |  |  |  | 
6 | COCCOC [1,2-dimethoxyethane] + CCn1cc[n+](C)c1.N#C[B-](C#N)(C#N)C#N | 0.452 ± 0.03 | 0.47 ± 0.03 | 0.505 ± 0.031 | 0.539 ± 0.031 | 0.574 ± 0.032 |  |  |  |  |  |  | 
7 | c1ccccc1 [benzene] + CCn1cc[n+](C)c1.N#C[B-](C#N)(C#N)C#N | 1.15 ± 0.05 | 1.15 ± 0.05 | 1.17 ± 0.05 | 1.18 ± 0.05 | 1.19 ± 0.05 |  |  |  |  |  |  | 
8 | CC(C)OC(C)C [diisopropyl ether] + CCn1cc[n+](C)c1.N#C[B-](C#N)(C#N)C#N | 7.07 ± 0.36 | 7.08 ± 0.36 | 7.1 ± 0.37 | 7.11 ± 0.37 | 7.13 ± 0.37 |  |  |  |  |  |  | 
9 | ClC(Cl)(Cl)Cl [tetrachloromethane] + CCn1cc[n+](C)c1.N#C[B-](C#N)(C#N)C#N | 3.56 ± 0.18 | 3.56 ± 0.18 | 3.55 ± 0.18 | 3.54 ± 0.18 | 3.53 ± 0.18 |  |  |  |  |  |  | 
10 | CCC(C)=O [butanone] + CCn1cc[n+](C)c1.N#C[B-](C#N)(C#N)C#N | 0.577 ± 0.032 | 0.584 ± 0.032 | 0.605 ± 0.033 | 0.611 ± 0.033 | 0.626 ± 0.033 |  |  |  |  |  |  | 
11 | C[N+](=O)[O-] [nitromethane] + CCn1cc[n+](C)c1.N#C[B-](C#N)(C#N)C#N | 0.419 ± 0.029 | 0.421 ± 0.029 | 0.423 ± 0.029 | 0.426 ± 0.029 | 0.429 ± 0.029 |  |  |  |  |  |  | 
12 | C1CCCCC1 [cyclohexane] + CCn1cc[n+](C)c1.N#C[B-](C#N)(C#N)C#N | 13.8 ± 0.7 | 13.4 ± 0.7 | 12.5 ± 0.6 | 11.8 ± 0.6 | 11.1 ± 0.6 |  |  |  |  |  |  | 
13 | COC(C)(C)C [2-methoxy-2-methylpropane] + CCn1cc[n+](C)c1.N#C[B-](C#N)(C#N)C#N | 2.77 ± 0.14 | 2.8 ± 0.14 | 2.85 ± 0.15 | 2.9 ± 0.15 | 2.95 ± 0.15 |  |  |  |  |  |  | 
14 | Cc1ccccc1 [toluene] + CCn1cc[n+](C)c1.N#C[B-](C#N)(C#N)C#N | 1.68 ± 0.08 | 1.69 ± 0.08 | 1.71 ± 0.09 | 1.72 ± 0.09 | 1.74 ± 0.09 |  |  |  |  |  |  | 
15 | CCn1cc[n+](C)c1.N#C[B-](C#N)(C#N)C#N [1-ethyl-3-methylimidazolium tetracyanoborate] |  |  |  |  |  | 1044.44 ± 0.26 kg/m3 | 1040.43 ± 0.26 kg/m3 | 1036.44 ± 0.26 kg/m3 | 1032.47 ± 0.26 kg/m3 | 1028.54 ± 0.25 kg/m3 | 1024.64 ± 0.25 kg/m3 | 1020.76 ± 0.25 kg/m3

Results, then the molecule that gave them:

Row | activity coefficient ([1]; 318.15 K) | activity coefficient ([1]; 323.15 K) | activity coefficient ([1]; 333.15 K) | activity coefficient ([1]; 343.15 K) | activity coefficient ([1]; 353.15 K) | mass density ([2]; 288.15 K) | mass density ([2]; 293.15 K) | mass density ([2]; 298.15 K) | mass density ([2]; 303.15 K) | mass density ([2]; 308.15 K) | mass density ([2]; 313.15 K) | mass density ([2]; 318.15 K) | SMILES
16 | 1.62 ± 0.08 | 1.55 ± 0.08 | 1.42 ± 0.07 | 1.31 ± 0.06 | 1.22 ± 0.06 |  |  |  |  |  |  |  | CCCO [propan-1-ol] + CCn1cc[n+](C)c1.N#C[B-](C#N)(C#N)C#N
17 | 2.62 ± 0.13 | 2.61 ± 0.13 | 2.61 ± 0.13 | 2.61 ± 0.13 | 2.61 ± 0.13 |  |  |  |  |  |  |  | CCc1ccccc1 [ethylbenzene] + CCn1cc[n+](C)c1.N#C[B-](C#N)(C#N)C#N
18 | 20.4 ± 1.1 | 19.7 ± 1 | 18.4 ± 1 | 17.2 ± 0.9 | 16.3 ± 0.8 |  |  |  |  |  |  |  | CC1CCCCC1 [methylcyclohexane] + CCn1cc[n+](C)c1.N#C[B-](C#N)(C#N)C#N
19 | 1.63 ± 0.08 | 1.56 ± 0.08 | 1.43 ± 0.07 | 1.32 ± 0.06 | 1.23 ± 0.06 |  |  |  |  |  |  |  | CC(C)O [propan-2-ol] + CCn1cc[n+](C)c1.N#C[B-](C#N)(C#N)C#N
20 | 1.3 ± 0.06 | 1.25 ± 0.06 | 1.15 ± 0.05 | 1.07 ± 0.05 | 1 ± 0.04 |  |  |  |  |  |  |  | CCO [ethanol] + CCn1cc[n+](C)c1.N#C[B-](C#N)(C#N)C#N
21 | 0.528 ± 0.031 | 0.535 ± 0.031 | 0.549 ± 0.031 | 0.563 ± 0.032 | 0.576 ± 0.032 |  |  |  |  |  |  |  | COC(=O)OC [dimethyl carbonate] + CCn1cc[n+](C)c1.N#C[B-](C#N)(C#N)C#N
22 | 42.4 ± 2.2 | 40.7 ± 2.1 | 37.5 ± 1.9 | 34.8 ± 1.8 | 32.3 ± 1.7 |  |  |  |  |  |  |  | CCCCCCC [heptane] + CCn1cc[n+](C)c1.N#C[B-](C#N)(C#N)C#N
23 | 28.8 ± 1.5 | 27.8 ± 1.4 | 26.1 ± 1.4 | 24.6 ± 1.3 | 23.3 ± 1.2 |  |  |  |  |  |  |  | C=CCCCCCC [oct-1-ene] + CCn1cc[n+](C)c1.N#C[B-](C#N)(C#N)C#N
24 | 0.812 ± 0.038 | 0.829 ± 0.038 | 0.863 ± 0.039 | 0.895 ± 0.04 | 0.926 ± 0.041 |  |  |  |  |  |  |  | ClC(Cl)Cl [trichloromethane] + CCn1cc[n+](C)c1.N#C[B-](C#N)(C#N)C#N
25 | 0.699 ± 0.035 | 0.709 ± 0.035 | 0.727 ± 0.036 | 0.744 ± 0.036 | 0.761 ± 0.037 |  |  |  |  |  |  |  | C1CCOC1 [tetrahydrofuran] + CCn1cc[n+](C)c1.N#C[B-](C#N)(C#N)C#N
26 | 0.653 ± 0.034 | 0.662 ± 0.034 | 0.682 ± 0.034 | 0.7 ± 0.035 | 0.723 ± 0.036 |  |  |  |  |  |  |  | COC(C)=O [methyl ethanoate] + CCn1cc[n+](C)c1.N#C[B-](C#N)(C#N)C#N
27 | 0.942 ± 0.042 | 0.947 ± 0.042 | 0.957 ± 0.042 | 0.967 ± 0.043 | 0.978 ± 0.043 |  |  |  |  |  |  |  | c1ccsc1 [thiophene] + CCn1cc[n+](C)c1.N#C[B-](C#N)(C#N)C#N
28 | 0.917 ± 0.041 | 0.89 ± 0.04 | 0.84 ± 0.039 | 0.795 ± 0.038 | 0.755 ± 0.036 |  |  |  |  |  |  |  | CO [methanol] + CCn1cc[n+](C)c1.N#C[B-](C#N)(C#N)C#N
29 | 0.989 ± 0.043 | 1 ± 0.04 | 1.02 ± 0.05 | 1.04 ± 0.05 | 1.06 ± 0.05 |  |  |  |  |  |  |  | CCOC(C)=O [ethyl acetate] + CCn1cc[n+](C)c1.N#C[B-](C#N)(C#N)C#N
30 | 318 ± 17 | 323 ± 17 | 333 ± 17 | 343 ± 18 | 353 ± 18 |  |  |  |  |  |  |  | CCC1CCCCC1 [ethylcyclohexane] + CCn1cc[n+](C)c1.N#C[B-](C#N)(C#N)C#N
31 | 64.2 ± 3.3 | 61.2 ± 3.2 | 55.8 ± 2.9 | 51 ± 2.7 | 47 ± 2.4 |  |  |  |  |  |  |  | CCCCCCCC [octane] + CCn1cc[n+](C)c1.N#C[B-](C#N)(C#N)C#N
